{"source": "patent US20240285552A1", "about": "(priority 2020, published 2024)", "key": {"[1]": {"target": "T1, recombinant human ACE2 (rhACE2) (Homo sapiens, UniProt Q9BYF1)", "T1 construct": "purchased BPS Bioscience 79923", "T1 sequence (Q9BYF1 18-805)": "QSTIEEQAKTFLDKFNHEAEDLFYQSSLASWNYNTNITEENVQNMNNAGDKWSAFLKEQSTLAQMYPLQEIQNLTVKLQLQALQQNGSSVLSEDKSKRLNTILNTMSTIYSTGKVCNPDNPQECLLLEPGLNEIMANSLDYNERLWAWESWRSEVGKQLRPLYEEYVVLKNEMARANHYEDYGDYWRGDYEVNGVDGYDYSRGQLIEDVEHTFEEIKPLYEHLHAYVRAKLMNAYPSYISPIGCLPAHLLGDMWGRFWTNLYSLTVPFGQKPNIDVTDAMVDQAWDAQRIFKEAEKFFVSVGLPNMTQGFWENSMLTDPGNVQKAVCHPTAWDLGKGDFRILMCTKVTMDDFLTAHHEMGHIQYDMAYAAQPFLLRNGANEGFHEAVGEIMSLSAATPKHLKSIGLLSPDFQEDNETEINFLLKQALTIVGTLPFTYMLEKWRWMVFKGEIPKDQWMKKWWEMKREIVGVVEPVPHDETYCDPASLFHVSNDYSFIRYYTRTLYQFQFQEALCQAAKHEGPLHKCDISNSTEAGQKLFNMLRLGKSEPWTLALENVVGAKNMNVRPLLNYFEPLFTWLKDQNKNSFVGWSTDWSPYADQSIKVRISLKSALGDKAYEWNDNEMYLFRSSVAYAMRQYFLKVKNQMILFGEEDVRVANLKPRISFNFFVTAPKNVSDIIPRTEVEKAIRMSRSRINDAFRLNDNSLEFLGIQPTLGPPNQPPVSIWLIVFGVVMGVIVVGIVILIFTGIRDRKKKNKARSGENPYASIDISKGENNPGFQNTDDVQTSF", "assay": "ACE2 exopeptidase inhibitor screening assay (fluorogenic substrate), AMB and BHH", "type": "biochemical", "procedure": "ACE2 Inhibitor Screening Assay. An ACE2 exopeptidase Inhibitor screening assay kit with the fluorogenic substrate (Catalogue #79923) was purchased from BPS Bioscience (San Diego, CA) and modified to measure the exopeptidase activity of ACE2 in the presence and absence of inhibitors (BPSBioscience, 2022). Following the manufacturer's directions, the fluorescence assay was carried out in a 96-well black flat-bottom plate with a final reaction volume of 50 μL. 50 mM stock solutions of BHH and AMB in 100% DMSO were prepared. Compounds were serially diluted in DMSO as follows: 500, 250, 100, 50, 10, 1, 0.1 μM. All experiments were done in triplicates and repeated twice. A positive control of enzyme treated with vehicle alone (2 percent DMSO) and a blank control with no enzyme were included on each plate.\nEach reaction had 24 μL of purified recombinant human ACE2 protein (0.42 ng/L) in ACE2 buffer, 1 μL of the compound at different concentrations, and 25 μL ACE2 fluorogenic substrate. The final volume of the reaction was 50 μL. The reaction mixtures were incubated for 1 hr at room temperature (22° C.) and protected from light. After that, the fluorescence intensities (λExcitation=535 nm, λEmission=595 nm) were measured using a Spectramax iD3 multimode plate reader. The background hydrolysis was subtracted, and the data were fitted to a four-parameter logistic (variable slope) equation using GraphPad prism software 9.1."}, "[2]": {"tested_on": "SARS-CoV-2 spike pseudotyped lentivirus", "assay": "microbe, parasite or virus in culture", "type": "cell-based", "conditions": "for Percent Inhibition of fusion of SARS-CoV-2 spike pseudotyped lentivirus with HEK293-ACE2 cells: hydrochloride"}, "SARS-CoV-2 USA_WA1/2020": {"tested_on": "SARS-CoV-2 USA_WA1/2020", "assay": "microbe, parasite or virus in culture", "type": "cell-based"}, "[3]": {"target": "T2, rhACE2 and SARS-CoV-2 Spike (RBD) protein interaction (Homo sapiens, UniProt Q9BYF1)", "T2 construct": "purchased RayBiotech CoV-SACE2-1", "T2 sequence (Q9BYF1 18-740)": "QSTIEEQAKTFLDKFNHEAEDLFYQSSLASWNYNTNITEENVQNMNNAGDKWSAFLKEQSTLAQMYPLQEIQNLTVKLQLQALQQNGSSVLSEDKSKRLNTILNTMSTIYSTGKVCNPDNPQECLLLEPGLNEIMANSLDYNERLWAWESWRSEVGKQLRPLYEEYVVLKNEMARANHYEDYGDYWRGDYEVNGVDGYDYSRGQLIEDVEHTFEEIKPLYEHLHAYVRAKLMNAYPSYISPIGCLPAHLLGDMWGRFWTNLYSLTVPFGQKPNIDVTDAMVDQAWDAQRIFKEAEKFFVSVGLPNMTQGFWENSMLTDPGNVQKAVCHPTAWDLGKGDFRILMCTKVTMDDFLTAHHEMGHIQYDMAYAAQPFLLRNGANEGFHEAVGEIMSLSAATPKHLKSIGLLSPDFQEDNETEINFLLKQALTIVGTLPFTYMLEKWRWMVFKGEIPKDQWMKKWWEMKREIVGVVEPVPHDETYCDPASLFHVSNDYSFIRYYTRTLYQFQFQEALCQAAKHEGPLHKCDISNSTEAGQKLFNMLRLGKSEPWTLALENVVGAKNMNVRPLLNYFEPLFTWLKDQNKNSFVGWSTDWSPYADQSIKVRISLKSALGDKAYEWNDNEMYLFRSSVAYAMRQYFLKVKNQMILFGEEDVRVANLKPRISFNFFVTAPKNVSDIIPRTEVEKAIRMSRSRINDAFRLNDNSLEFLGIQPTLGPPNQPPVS", "assay": "Spike (RBD)-ACE2 binding assay (ELISA)", "set-up": "species or system human; SARS-CoV-2", "conditions": "for IC50: bell-shaped model, AMB, BHH"}, "ACE1 [4]": {"target": "T3, ACE1 (Homo sapiens, UniProt P12821)", "T3 construct": "purchased Sigma-Aldrich MAK422", "T3 sequence (P12821 30-1306)": "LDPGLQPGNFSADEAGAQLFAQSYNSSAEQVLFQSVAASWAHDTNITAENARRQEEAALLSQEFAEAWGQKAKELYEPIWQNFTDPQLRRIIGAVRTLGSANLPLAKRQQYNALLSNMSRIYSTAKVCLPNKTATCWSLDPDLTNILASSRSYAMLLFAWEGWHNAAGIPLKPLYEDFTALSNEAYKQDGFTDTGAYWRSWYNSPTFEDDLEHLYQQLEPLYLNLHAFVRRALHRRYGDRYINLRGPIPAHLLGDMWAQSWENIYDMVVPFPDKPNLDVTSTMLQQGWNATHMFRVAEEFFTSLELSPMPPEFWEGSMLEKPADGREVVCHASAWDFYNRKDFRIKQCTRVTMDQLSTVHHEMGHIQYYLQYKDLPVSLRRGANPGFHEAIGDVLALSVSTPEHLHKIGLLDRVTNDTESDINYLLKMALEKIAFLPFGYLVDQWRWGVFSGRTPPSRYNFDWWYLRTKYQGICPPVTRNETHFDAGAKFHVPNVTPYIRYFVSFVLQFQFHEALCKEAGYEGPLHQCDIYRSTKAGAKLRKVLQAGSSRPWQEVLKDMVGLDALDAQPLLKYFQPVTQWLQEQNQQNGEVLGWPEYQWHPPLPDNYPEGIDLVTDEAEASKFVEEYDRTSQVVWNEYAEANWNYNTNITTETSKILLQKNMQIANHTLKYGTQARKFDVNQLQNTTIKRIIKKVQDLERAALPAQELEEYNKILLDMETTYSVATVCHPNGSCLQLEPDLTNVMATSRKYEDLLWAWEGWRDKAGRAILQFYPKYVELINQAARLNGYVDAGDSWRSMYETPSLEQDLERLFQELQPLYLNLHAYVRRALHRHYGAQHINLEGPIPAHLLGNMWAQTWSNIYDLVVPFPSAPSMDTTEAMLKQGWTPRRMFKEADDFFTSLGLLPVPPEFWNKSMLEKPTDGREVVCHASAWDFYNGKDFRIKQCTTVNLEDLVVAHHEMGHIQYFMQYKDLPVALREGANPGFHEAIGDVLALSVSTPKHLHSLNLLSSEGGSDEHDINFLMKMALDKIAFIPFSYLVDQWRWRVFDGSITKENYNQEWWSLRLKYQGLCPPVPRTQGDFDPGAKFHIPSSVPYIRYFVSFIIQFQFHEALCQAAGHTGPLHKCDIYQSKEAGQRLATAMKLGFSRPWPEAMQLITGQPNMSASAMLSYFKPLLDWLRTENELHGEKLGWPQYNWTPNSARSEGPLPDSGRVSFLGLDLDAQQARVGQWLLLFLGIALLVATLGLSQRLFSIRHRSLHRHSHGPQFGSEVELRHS", "assay": "ACE1 activity assay (colorimetric)", "type": "biochemical", "conditions": "hydrochloride", "procedure": "ACE1 Activity Assay. ACE1 Inhibitor Screening Kit (Cat #MAK422) was purchased from Sigma-Aldrich (St. Louis, MO) and adapted to determine the effect of BHH and AMB on the enzymatic activity of ACE (Aldrich, 2022). The in vitro colorimetric assay was performed in a transparent flat-bottom 96-well plate. 50 mm and 10 mm solutions of Captropil, a known ACE1 inhibitor were used as a positive inhibitor control. Stock solutions of the compounds were prepared in 100% Dimethyl sulfoxide (DMSO) and further serially diluted in DMSO as follows: 500, 100, 50,10,5,1 and 0.5 μm for AMB and the positive control Captropil. All experiments were performed in quadruplicates. Each plate contained positive controls (1% DMSO) and blank controls with no ACE1 enzyme. Specifically, 2.5 μl of serially diluted compounds were pre-incubated with 2 μl of ACE1 protein diluted in 38 μl of 1× assay diluent buffer for about 15 mins, at room temperature (22° C.). 157.5 μl of 1×ACE1 assay buffer (197.5 μl for −ve control) was added into the 96 well plates. The solution was mixed well and incubated at 37° C. for 15-20 minutes, protected from light. After that, 40 μl of the substrate was added to each well and mixed well. The absorbance was measured immediately at 345 nm (A345) in kinetic mode for 60 minutes."}, "ACE1 [5]": {"tested_on": "ACE1", "assay": "Western blotting, ACE1 expression in A549 cells", "type": "cell-based, human", "conditions": "50 μm, 24 hrs and 48 hrs", "procedure": "(§1) Western blotting. A549 “Lung” cells (RRID:CVCL_COQ5) were harvested in a radioimmuno precipitation assay (RIPA) buffer (Tris 10 mM pH 7.4, containing 140 mM NaCl, 1 mM EDTA, 1 mM NaF, 0.10% SDS, 0.50% sodium deoxycholate 0.1% NP-40, 1% Triton X-100) in the presence of protease inhibitors (Thermo Fisher) at 24 hrs. and 48 hrs. Protein concentration was determined by was determined using bicinchoninic acid with bovine serum albumin as a standard (Thermo Fisher). Equal amounts of protein were loaded and separated by SDS-PAGE using 10% pre-casted gels (Biorad). Proteins were electroblotted onto nitrocellulose membranes (Bio-Rad). The blots were blocked using 5% (w/v) milk in Tris-buffered saline containing 0.5% (v/v) Tween-20. The membranes were then incubated with different antibodies. Antibodies directed against ACE1 (ab28311) and ACE2 (ab108209) were used and the GAPDH antibody was used as loading control for cell lysates. Primary and secondary antibodies were diluted in Tris-buffered saline containing (0.5% v/v) Tween-20 (TBS-T) supplemented with 5% milk. The bands were visualized by incubating the blots with enhanced chemiluminescence reagent (ECL, Biorad) and visualized using chemidoc. Band intensities were quantified by using imagelab software Biorad."}, "ACE2": {"tested_on": "ACE2", "assay": "Western blotting, ACE2 expression in A549 cells", "type": "cell-based, human", "conditions": "50 μm, 24 hrs and 48 hrs, hydrochloride", "procedure": "as §1"}, "Vero E6 cells": {"tested_on": "Vero E6 cells", "conditions": "Vero E6; at 30 μM; Example B"}, "in vitro": {"assay": "in vitro", "conditions": "African green monkey"}}, "note": "Entries after “also recorded” stand apart in the source; their conditions may differ. Where a name gives a salt, the structure may show the parent alone. Read-outs that look alike come from different tables or passages of the source."}
{"smiles": "CN(Cc1cc(Br)cc(Br)c1N)C1CCCCC1", "note": "[BHH, Bromhexine hydrochloride]", "values": [{"measurement": "ACE2 Exopeptidase Activity: Percent Activity", "setting": "[1]; 0.1 uM", "value": 111.3, "unit": "%"}, {"measurement": "inhibition at 0.1 µM", "setting": "[1]; 0.1 uM, read-out: ACE2 Exopeptidase Activity: Percent Inhibition", "value": -11.3, "unit": "%"}, {"measurement": "ACE2 Exopeptidase Activity: Percent Activity", "setting": "[1]; 1 uM", "value": 114.7, "unit": "%"}, {"measurement": "inhibition at 1 µM", "setting": "[1]; 1 uM, read-out: ACE2 Exopeptidase Activity: Percent Inhibition", "value": -14.7, "unit": "%"}, {"measurement": "ACE2 Exopeptidase Activity: Percent Activity", "setting": "[1]; 10 uM", "value": 104.6, "unit": "%"}, {"measurement": "inhibition at 10 µM", "setting": "[1]; 10 uM, read-out: ACE2 Exopeptidase Activity: Percent Inhibition", "value": -4.6, "unit": "%"}, {"measurement": "ACE2 Exopeptidase Activity: Percent Activity", "setting": "[1]; 50 uM", "value": 2.7, "unit": "%"}, {"measurement": "inhibition at 50 µM", "setting": "[1]; 50 uM, read-out: ACE2 Exopeptidase Activity: Percent Inhibition", "value": 97.3, "unit": "%"}, {"measurement": "ACE2 Exopeptidase Activity: Percent Activity", "setting": "[1]; 100 uM", "value": "−6.2", "unit": "%"}, {"measurement": "inhibition at 100 µM", "setting": "[1]; 100 uM, read-out: ACE2 Exopeptidase Activity: Percent Inhibition", "value": 106, "unit": "%"}, {"measurement": "ACE2 Exopeptidase Activity: Percent Activity", "setting": "[1]; 250 uM", "value": "−6.7", "unit": "%"}, {"measurement": "inhibition at 250 µM", "setting": "[1]; 250 uM, read-out: ACE2 Exopeptidase Activity: Percent Inhibition", "value": 107, "unit": "%"}, {"measurement": "ACE2 Exopeptidase Activity: Percent Activity", "setting": "[1]; 500 uM", "value": "−6.6", "unit": "%"}, {"measurement": "inhibition at 500 µM", "setting": "[1]; 500 uM, read-out: ACE2 Exopeptidase Activity: Percent Inhibition", "value": 107, "unit": "%"}, {"measurement": "IC50", "setting": "[1]; read-out: IC50, exopeptidase function of ACE2", "value": 26, "unit": "µM"}, {"measurement": "effect on exopeptidase activity of rhACE2", "setting": "[1]; tested 0.1 to 500 μM, hydrochloride", "value": "completely inhibited"}, {"measurement": "Percent Inhibition of fusion of SARS-CoV-2 spike pseudotyped lentivirus with HEK293-ACE2 cells", "setting": "[2]; 50 μM, Table 3", "value": 61, "unit": "%"}, {"measurement": "Percent Inhibition of fusion of SARS-CoV-2 spike pseudotyped lentivirus with HEK293-ACE2 cells", "setting": "[2]; 100 μM, Table 3", "value": 76, "unit": "%"}, {"measurement": "inhibition at 50 µM", "setting": "[2]; Severe acute respiratory syndrome coronavirus 2, 50 μM, Table 3, read-out: Percent Inhibition of fusion of SARS-CoV-2 spike pseudotyped lentivirus with HEK293-ACE2 cells", "value": 57, "unit": "%"}, {"measurement": "inhibition at 100 µM", "setting": "[2]; Severe acute respiratory syndrome coronavirus 2, 100 μM, Table 3, read-out: Percent Inhibition of fusion of SARS-CoV-2 spike pseudotyped lentivirus with HEK293-ACE2 cells", "value": 73, "unit": "%"}, {"measurement": "inhibition at 10 µM", "setting": "[2]; Severe acute respiratory syndrome coronavirus 2, HEK293, 10 μM, Table 2, read-out: Percent (%) Inhibition of Pseudo virus Entry in HEK293 Kidney Cells, SARS-COV-2", "value": 50, "unit": "%"}, {"measurement": "inhibition at 100 µM", "setting": "[2]; Severe acute respiratory syndrome coronavirus 2, HEK293, 100 μM, Table 2, read-out: Percent (%) Inhibition of Pseudo virus Entry in HEK293 Kidney Cells, SARS-COV-2", "value": "≤ 100", "unit": "%"}, {"measurement": "Concentration at Maximum % Inhibition", "setting": "SARS-CoV-2 USA_WA1/2020; Example C (Table 3)", "value": 37.5, "unit": "µM"}, {"measurement": "Maximum Inhibition", "setting": "SARS-CoV-2 USA_WA1/2020; Example C (Table 3)", "value": 72.39, "unit": "%"}, {"measurement": "IC50", "setting": "SARS-CoV-2 USA_WA1/2020; Severe acute respiratory syndrome coronavirus 2, Vero C1008, Example C (Table 3), read-out: IC 50 against SARS-COV-2 Induced Cytopathic Effect in Vero E6 Cells", "value": "~31.6", "unit": "µM"}, {"measurement": "IC50", "setting": "SARS-CoV-2 USA_WA1/2020; Severe acute respiratory syndrome coronavirus 2, Vero C1008, Vero E6, Example B, highest concentration tested 30 μM, read-out: IC50 against SARS-CoV-2 infection induced CPE", "value": "~21.7", "unit": "µM"}, {"measurement": "inhibition at 30 µM", "setting": "SARS-CoV-2 USA_WA1/2020; Severe acute respiratory syndrome coronavirus 2, Vero C1008, at 30 μM, Example B, read-out: inhibition of SARS-CoV-2 induced CPE at maximum concentration", "value": "~91.1", "unit": "%"}, {"measurement": "EC50", "setting": "SARS-CoV-2 USA_WA1/2020; Severe acute respiratory syndrome coronavirus 2, Vero C1008, read-out: EC50 values against SARS-CoV-2 (summary statement)", "value": "~30", "unit": "µM"}, {"measurement": "effect on Spike (RBD)-rhACE2 interaction", "setting": "[3]; 100 μM to 100 nM, hydrochloride", "value": "enhanced the interaction at higher concentrations; also recorded: increased the binding of ACE2 and RBD at high concentrations of 100 and 50 μM but blocked the interaction at low concentrations"}, {"measurement": "IC50", "setting": "[3]; highest tested 100 μM, read-out: Estimated Relative IC50 against rhACE2 and RBD Interaction Assay, IC50_2", "value": 42.9, "unit": "µM"}, {"measurement": "IC50", "setting": "[3]; read-out: Estimated Relative IC50 against rhACE2 and RBD Interaction Assay, IC50_1", "value": 1.19, "unit": "µM"}, {"measurement": "effect on exopeptidase activity of ACE", "setting": "ACE1 [4]", "value": "inhibited; also recorded: showed activity against ACE1"}, {"measurement": "change of ACE1 expression", "setting": "ACE1 [5]", "value": "no changes"}, {"measurement": "change of ACE2 expression", "setting": "ACE2", "value": "no changes"}, {"measurement": "change of ACE2 expression", "setting": "ACE2; listed as BBH", "value": "does not affect"}, {"measurement": "percent minimum viability", "setting": "Vero E6 cells", "value": 103.87, "unit": "%"}, {"measurement": "CC50 at 72 h", "setting": "in vitro; 50% cytotoxic concentration (CC50), Vero E6, 72 hours, Examples A and B, highest concentration 30 μM", "value": "> 30", "unit": "µM"}, {"measurement": "CC50 at 72 h", "setting": "in vitro; Cytotoxicity CC50, Vero E6, 72 hours, Example C (Table 4)", "value": 58.3, "unit": "µM"}]}
